Assays:
[1] = 101.3 kPa, Liquid
[2] = xn = mol fraction of the nth substance listed; details: 101 kPa, Liquid

CCCCO [butan-1-ol]
[1]
Details	mass density [kg/m3]
288.15 K	813.77
298.15 K	806.137
313.15 K	794.488
328.15 K	782.477

CC(C)CO [2-methyl-1-propanol]
[1]
Details	mass density [kg/m3]
288.15 K	805.6
298.15 K	797.916
313.15 K	786.069
328.15 K	773.692

CO [methanol]
[1]
Details	mass density [kg/m3]
288.15 K	796.406
298.15 K	786.987
313.15 K	772.74
328.15 K	758.201

CCCO [propan-1-ol]
[1]
Details	mass density [kg/m3]
288.15 K	809.009
298.15 K	800.973
313.15 K	788.687
328.15 K	775.974

CC(C)O [propan-2-ol]
[1]
Details	mass density [kg/m3]
288.15 K	789.342
298.15 K	780.99
313.15 K	767.922
328.15 K	754.001

CCO [ethanol]
[1]
Details	mass density [kg/m3]
288.15 K	794.044
298.15 K	785.489
313.15 K	772.42
328.15 K	758.958

CCOC(=O)CC(=O)OCC [diethyl 1,3-propanedioate] + CCO
mass density [kg/m3], [2]
Details	288.15 K	298.15 K	313.15 K	328.15 K
x1 = 0.05	826.264	817.293	803.619	789.558
x1 = 0.0999	853.923	844.646	830.505	815.983
x1 = 0.1001	854.013	844.731	830.589	816.063
x1 = 0.15	878.005	868.468	853.941	839.005
x1 = 0.2001	899.1	889.366	874.536	859.351
x1 = 0.3	934.365	924.309	909.007	893.394
x1 = 0.4	962.806	952.511	936.881	920.983
x1 = 0.4498	974.929	964.533	948.801	932.802
x1 = 0.4999	986.037	975.577	959.71	943.637
x1 = 0.5501	996.293	985.767	969.837	953.695
x1 = 0.6001	1005.6	995.034	979.034	962.847
x1 = 0.6453	1013.44	1002.82	986.788	970.577
x1 = 0.6997	1022.16	1011.52	995.442	979.211
x1 = 0.7497	1029.61	1018.93	1002.83	986.588
x1 = 0.8496	1043.02	1032.31	1016.2	999.969
x1 = 0.8995	1049.08	1038.36	1022.25	1006.06
x1 = 1	1060.33	1049.6	1033.5	1017.34

CCOC(=O)CC(=O)OCC [diethyl 1,3-propanedioate]
[1]
Details	mass density [kg/m3]
288.15 K	1060.33
298.15 K	1049.6
313.15 K	1033.5
328.15 K	1017.34

Source: the NIST ThermoML archive (doi:10.1021/je100100n)
